# Laboratory results taken from paper PMC9354954, “Assessing Bioavailability and Bioactivity of 4-Hydroxythiazolidine-2-Thiones, Newly Discovered Glucosinolate Degradation Products Formed During Domestic Boiling of Cabbage” (Frontiers in Nutrition, 2022).
# Columns and labels:
# HepG2 cells [1] = experiment: Metabolite formation in medium after 24 h incubation with HepG2 cells (HPLC-UV, qToF); type: in vitro ADME, human; conditions: 100 μM, 24 h with HepG2 cells, vs spiked medium without cells
# Protocol: Additionally, the removed non-spiked and spiked medium after 24 h of cell incubation was measured by the UPLC-DAD system (see Section Stability of 4-Hydroxythiazolidine-2-Thiones in a Stomach Model) and HPLC method 2 at 280 ± 2 nm and after 10-fold pre-concentration, using solid-phase extraction (Chromabond®, C18, 3 mL/500 mg, Macherey-Nagel) by an HPLC-DAD-ESI-qToF system (Agilent 1290 Infinity II for the binary pump, Agilent 1290 Infinity for autosampler, degasser, column oven, Agilent 1260 Infinity for DAD detector, and Agilent 1260 Infinity II, for an isocratic pump for adding reference mass solution) using A = water and B = MeCN: 0 to 3 min 2% B, an increase to 14 min up to 98% B, holding for 5.4 min followed by a decrease to 2% B at 20 min, and re-equilibration with 2% B for 4.5 min, using a flow rate of 300 μL/min, Agilent Zorbax Eclipse Plus C8 column (see Section Stability of 4-Hydroxythiazolidine-2-Thiones in a Stomach Model), and a column oven temperature of 35°C. […]
# [2] = Determination of log P (octanol/water); type: physicochemical; conditions: room temperature; for concentration ratio in the octanol phase compared to the water phase: 18 h, triplicates; for logP at 18 h: octanol/water
# Protocol: For the determination of log P of the HTTs, two solutions were used: water saturated with octanol and octanol saturated with water. […] The spiked octanol-water mixture was vortexed for 30 s and the mixture was incubated for 18 h at room temperature to obtain analyte equilibrium distribution. For determination of the log P-value, 50 μL of the water phase was taken and measured by HPLC-UV at 274 ± 2 nm with HPLC method 2 (see Section Stability of 4-Hydroxythiazolidine-2-Thiones in a Stomach Model) with an injection volume of 10 μL. The analyte concentration in the water phase was determined by using external calibration. The relative analyte content in the water phase was calculated by using the following equation:
# analyte content in water phase in % =measured concentration in water phase of the mixture/2 · concentration in pure water reference ·100%
# The relative analyte content in the octanol phase was calculated at 100% minus the relative analyte concentration in the water phase. The reported results are the mean ± SD of the three determined log P-values for the three repetitions.
# [3] = Estimation of permeability coefficients from plot of Levin data using measured partition coefficients; conditions: for Papp: not told, estimated from plot of Levin data (ref 32) using measured octanol/water partition coefficients, read-out: estimated permeability coefficient
# Excerpt: The log P-value is positive for compounds which are better soluble in the octanol phase, and is negative for compounds which are better soluble in the aqueous phase. To assess if the different uptake behavior of the two HTTs is based on their different polarity, the octanol/water partition coefficients of several compounds were plotted against their permeability coefficients, based on a previous report by Levin ([32]) (Supplementary Figure S5). The obtained plot was used to estimate the permeability coefficients of the two HTTs with 2 × 10^−4 cm/s for allyl HTT and 1.1 × 10^−5 cm/s for 4-MSOB HTT using the measured octanol/water partition coefficients of both compounds. The ratio of both estimated permeability coefficients was 18 and fitted very well to the measured ratios of 27-fold and 10-fold for the higher uptake of allyl HTT compared to 4-MSOB HTT in the experiments with HepG2 and Caco-2 cells. Therefore, the uptake of allyl HTT and 4-MSOB HTT in the in vitro assays can be primarily explained by simple passive diffusion through the cell membrane. Additionally, the fact that in both intestinal model experiments (transport of the analyte from the upper to the lower compartment, as well as from the lower to an upper compartment), the transport velocity was similar, and an equilibrium concentration between both compartments was reached, supporting the hypothesis of passive diffusion without the need of special transporters.
# Figure S5: Plot of data reported by Levin (1980) to describe the correlation between the octanol/water partition coefficients of several compounds and their permeability coefficients. The red line and thin black lines were draw by the author and used to estimate the permeability coefficients of 3-allyl-4-hydroxythiazolidine-2-thione (allyl HTT) and 4-hydroxy-3-(4-(methylsulfinyl)butyl) thiazolidine-2-thione (4-MSOB HTT) using their measured octanol-water partition coefficients (black lines).
# Caco-2 cells = experiment: Cytotoxicity, MTT assay; type: cell-based, human; conditions: Caco-2, MTT assay, up to 100 μM, 24 h
# Protocol: (§1) To determine the cytotoxicity of allyl HTT and 4-MSOB HTT, HepG2 and Caco-2 cells were seeded in a 96-well TC-plate (standard F, sterile, from Sarsted, Nümbrecht, Germany) using a seeding density of 20,000 cells/well. After 24 h, the medium was exchanged to 200 μL pure medium or 200 μL medium containing allyl HTT or 4-MSOB HTT with concentrations in the range of 0.1–100 μM. The cells were treated for 24 h under cell culture conditions (prepared for three biological replicates, every 3 technical replicates). Cell viability was determined using the MTT assay and the neutral red uptake assay based on Schröter et al. ([27]). In the case of MTT assay, after 24 h of HTT treatment, 20 μL of MTT solution (75 mg MTT in 15 mL PBS) were added, and cells were incubated for 60 min under cell culture conditions. Afterward, the supernatant was removed and 100 μL of lysis buffer (5% formic acid in isopropanol) was added and the plate was shaken for 10 min at 300 rpm before measuring the absorption at 550 ± 5 nm (reference 690 ± 5 nm) by a Tecan i-control Infinite M200 PRO plate reader (Crailsheim, Germany). In the case of the neutral red uptake assay, the supernatant was removed after 24 h HTT treatment, and 100 μL neutral red solution (40 mg neutral red in 10 mL PBS, freshly diluted 1:100 with medium and incubated for 24 h under cell culture conditions) was added. After incubation of neutral red solution for 2 h under cell culture conditions, the supernatant was removed, and cells were washed with 150 μL of PBS. After removing PBS, 150 μL desorb solution (49.5% water/49.5% ethanol/1% acetic acid) was added and the plate was shaken for 10 min at 300 rpm before measuring the absorption at 540 ± 5 nm by Tecan i-control Infinite M200 PRO plate reader. The mean ± SD is used for presenting the results of three technical replicates for each data point of the three biological replicates.
# HepG2 cells [4] = experiment: Cytotoxicity, MTT assay; type: cell-based, human; conditions: up to 100 μM, 24 h
# Protocol: as §1
SMILES,newly formed metabolites in spiked medium (LC-UV chromatogram) (HepG2 cells [1]),concentration ratio in the octanol phase compared to the water phase [2],logP at 18 h [2],ratio of both estimated permeability coefficients ([3]; allyl HTT vs 4-MSOB HTT),Papp [3],effect on cell viability compared to untreated cells (Caco-2 cells),effect on cell viability compared to untreated cells (HepG2 cells [4])
"C=CCN1C(=S)SCC1O (stereo not shown) [allyl HTT, 3-allyl-4-hydroxythiazolidine-2-thione]",did not show any additional signals,8.1 ± 0.4,0.91 ± 0.02,18,200 ×10⁻⁶ cm/s,did not show any effect on cell viability,did not show any effect on cell viability
"C[S+]([O-])CCCCN1C(=S)SCC1O (stereo not shown) [4-MSOB HTT, 4-hydroxy-3-(4-(methylsulfinyl)butyl)thiazolidine-2-thione]",a new peak was observed,0.45 ± 0.04,-0.35 ± 0.04,–,11 ×10⁻⁶ cm/s,did not show any effect on cell viability,did not show any effect on cell viability
